Assay results as given in ChEMBL document CHEMBL1681651, “A broad spectrum anticancer nucleoside with selective toxicity against human colon cells in vitro” (2011).

Legend:
Format in all cases: functional
SNB-75 = assay: Growth inhibition of human SNB75 cells assessed as cell growth at 1 mM after 48 hrs by SRB assay; conditions: SNB-75, 48 h, read-out: Activity
DU-145 = assay: Growth inhibition of human DU145 cells assessed as cell growth at 1 mM after 48 hrs by SRB assay; conditions: DU-145, 48 h, read-out: Activity
NCI-H460 = assay: Growth inhibition of human NCI-H460 cells assessed as cell growth at 100 uM after 48 hrs by SRB assay; conditions: NCI-H460, 48 h, read-out: Activity
MDA-MB-435 = assay: Growth inhibition of human MDA-MB-435 cells assessed as cell growth at 0.1 uM after 48 hrs by SRB assay; conditions: MDA-MB-435, 48 h, read-out: Activity
UO-31 = assay: Growth inhibition of human UO31 cells assessed as cell growth at 1 uM after 48 hrs by SRB assay; conditions: UO-31, 48 h, read-out: Activity
OVCAR-3 = assay: Growth inhibition of human OVCAR3 cells assessed as cell growth at 10 uM after 48 hrs by SRB assay; conditions: OVCAR-3, 48 h, read-out: Activity
NCI-H322M = assay: Growth inhibition of human NCI-H322M cells assessed as cell growth at 1 uM after 48 hrs by SRB assay; conditions: read-out: Activity
NCI-H522 = assay: Growth inhibition of human NCI-H522 cells assessed as cell growth at 1 mM after 48 hrs by SRB assay; conditions: NCI-H522, 48 h, read-out: Activity
HCT-15 = assay: Growth inhibition of human HCT15 cells assessed as cell growth at 1 uM after 48 hrs by SRB assay; conditions: HCT-15, 48 h, read-out: Activity
UACC-257 = assay: Growth inhibition of human UACC257 cells assessed as cell growth at 10 uM after 48 hrs by SRB assay; conditions: UACC-257, 48 h, read-out: Activity
COLO 205 [1] = assay: Growth inhibition of human COLO205 cells assessed as cell growth at 100 uM after 48 hrs by SRB assay; conditions: COLO 205, 48 h, read-out: Activity
COLO 205 [2] = assay: Growth inhibition of human COLO205 cells assessed as cell growth at 1 mM after 48 hrs by SRB assay; conditions: COLO 205, 48 h, read-out: Activity
A498 = assay: Growth inhibition of human A498 cells assessed as cell growth at 0.1 uM after 48 hrs by SRB assay; conditions: A498, 48 h, read-out: Activity
T47D = assay: Growth inhibition of human T47D cells assessed as cell growth at 1 uM after 48 hrs by SRB assay; conditions: read-out: Activity
[3] = Growth inhibition of human […] cells assessed as cell growth at 1 mM after 48 hrs by SRB assay; conditions: read-out: Activity
SN12C = assay: Growth inhibition of human SN12C cells assessed as cell growth at 100 uM after 48 hrs by SRB assay; conditions: read-out: Activity
NCI-H226 = assay: Growth inhibition of human NCI-H226 cells assessed as cell growth at 0.1 uM after 48 hrs by SRB assay; conditions: NCI-H226, 48 h, read-out: Activity
COLO 205 [4] = assay: Growth inhibition of human COLO205 cells assessed as cell growth at 1 uM after 48 hrs by SRB assay; conditions: COLO 205, 48 h, read-out: Activity
CAKI-1 [5] = assay: Growth inhibition of human Caki1 cells assessed as cell growth at 100 uM after 48 hrs by SRB assay; conditions: CAKI-1, 48 h, read-out: Activity
SNB-19 [6] = assay: Growth inhibition of human SNB19 cells assessed as cell growth at 1 uM after 48 hrs by SRB assay; conditions: SNB-19, 48 h, read-out: Activity
IGROV-1 [7] = assay: Growth inhibition of human IGROV1 cells after 48 hrs by […] growth inhibition assay; conditions: IGROV-1, 48 h
RXF 393 = assay: Growth inhibition of human RXF393 cells assessed as cell growth at 100 uM after 48 hrs by SRB assay; conditions: RXF 393, 48 h, read-out: Activity
MCF7 = assay: Growth inhibition of human MCF7 cells assessed as cell growth at 1 uM after 48 hrs by SRB assay; conditions: MCF7, 48 h, read-out: Activity
CAKI-1 [8] = assay: Growth inhibition of human Caki1 cells after 48 hrs by […] growth inhibition assay; conditions: CAKI-1, 48 h
SNB-19 [9] = assay: Growth inhibition of human SNB19 cells after 48 hrs by […] growth inhibition assay; conditions: SNB-19, 48 h
OVCAR-4 = assay: Growth inhibition of human OVCAR4 cells after 48 hrs by […] growth inhibition assay; conditions: OVCAR-4, 48 h
EKVX = assay: Growth inhibition of human EKVX cells after 48 hrs by […] growth inhibition assay
SF-268 = assay: Growth inhibition of human SF268 cells assessed as cell growth at 10 uM after 48 hrs by SRB assay; conditions: SF-268, 48 h, read-out: Activity
HOP-62 = assay: Growth inhibition of human HOP62 cells assessed as cell growth at 100 uM after 48 hrs by SRB assay; conditions: HOP-62, 48 h, read-out: Activity
TK-10 [10] = assay: Growth inhibition of human TK10 cells assessed as cell growth at 1 mM after 48 hrs by SRB assay; conditions: TK-10, 48 h, read-out: Activity
TK-10 [11] = assay: Growth inhibition of human TK10 cells assessed as cell growth at 10 uM after 48 hrs by SRB assay; conditions: TK-10, 48 h, read-out: Activity
CCRF-CEM = assay: Growth inhibition of human CCRF-CEM cells assessed as cell growth at 1 uM after 48 hrs by SRB assay; conditions: read-out: Activity
OVCAR-8 = assay: Growth inhibition of human OVCAR8 cells assessed as cell growth at 1 uM after 48 hrs by SRB assay; conditions: OVCAR-8, 48 h, read-out: Activity
IGROV-1 [12] = assay: Growth inhibition of human IGROV1 cells assessed as cell growth at 100 uM after 48 hrs by SRB assay; conditions: IGROV-1, 48 h, read-out: Activity
[13] = read-out: LC50 (the source's name)
[14] = read-out: pLC50 (the source's name) (converted)

CNC(=O)NC[C@H]1O[C@@H](n2cnc3c(NC(=O)Nc4ccccc4)ncnc32)[C@H](O[Si](C)(C)C(C)(C)C)[C@@H]1O[Si](C)(C)C(C)(C)C
growth at 1000 µM (SNB-75): -12%
growth at 1000 µM (DU-145): -89%
growth at 100 µM (NCI-H460): -74%
growth at 0.1 µM (MDA-MB-435): 102%
growth at 1 µM (UO-31): 97%
growth at 10 µM (OVCAR-3): 113%
growth at 1 µM (NCI-H322M): 106%
growth at 1000 µM (NCI-H522): -49%
growth at 1 µM (HCT-15): 106%
growth at 10 µM (UACC-257): 104%
growth at 100 µM (COLO 205 [1]): -95%
growth at 1000 µM (COLO 205 [2]): -94%
growth at 0.1 µM (A498): 92%
growth at 1 µM (T47D): 105%
growth at 1000 µM [3]: 4%
growth at 100 µM (SN12C): -87%
growth at 0.1 µM (NCI-H226): 102%
growth at 1 µM (COLO 205 [4]): 111%
growth at 100 µM (CAKI-1 [5]): -11%
growth at 1 µM (SNB-19 [6]): 100%
GI50 (IGROV-1 [7]; read-out: GI50): 2.74 µM
CC50 (IGROV-1 [7]; [13]): > 100 µM
TGI (IGROV-1 [7]; read-out: TGI): 7.76 µM
GI50 (IGROV-1 [7]; read-out: pGI50 (converted)): 2.75 µM
CC50 (IGROV-1 [7]; [14]): > 100 µM
TGI (IGROV-1 [7]; read-out: pTGI (converted)): 7.76 µM
growth at 100 µM (RXF 393): -73%
growth at 1 µM (MCF7): 96%
GI50 (CAKI-1 [8]; read-out: GI50): 2.7 µM
CC50 (CAKI-1 [8]; [13]): > 100 µM
TGI (CAKI-1 [8]; read-out: TGI): 7.93 µM
GI50 (CAKI-1 [8]; read-out: pGI50 (converted)): 2.69 µM
CC50 (CAKI-1 [8]; [14]): > 100 µM
TGI (CAKI-1 [8]; read-out: pTGI (converted)): 7.94 µM
GI50 (SNB-19 [9]; read-out: GI50): 4.57 µM
CC50 (SNB-19 [9]; [13]): > 100 µM
TGI (SNB-19 [9]; read-out: TGI): > 100 µM
GI50 (SNB-19 [9]; read-out: pGI50 (converted)): 4.57 µM
CC50 (SNB-19 [9]; [14]): > 100 µM
TGI (SNB-19 [9]; read-out: pTGI): > 100 µM
GI50 (OVCAR-4; read-out: GI50): 3.44 µM
CC50 (OVCAR-4; [13]): > 100 µM
TGI (OVCAR-4; read-out: TGI): 43.9 µM
GI50 (OVCAR-4; read-out: pGI50 (converted)): 3.47 µM
CC50 (OVCAR-4; [14]): > 100 µM
TGI (OVCAR-4; read-out: pTGI): 43.7 µM
GI50 (EKVX; read-out: GI50): 3.7 µM
CC50 (EKVX; [13]): > 100 µM
TGI (EKVX; read-out: TGI): 30.6 µM
GI50 (EKVX; read-out: pGI50 (converted)): 3.72 µM
CC50 (EKVX; [14]): > 100 µM
TGI (EKVX; read-out: pTGI (converted)): 30.9 µM
growth at 10 µM (SF-268): 102%
growth at 100 µM (HOP-62): 26%
growth at 1000 µM (TK-10 [10]): -2%
growth at 10 µM (TK-10 [11]): 112%
growth at 1 µM (CCRF-CEM): 109%
growth at 1 µM (OVCAR-8): 106%
growth at 100 µM (IGROV-1 [12]): -12%

CNC(=O)NC[C@H]1O[C@@H](n2cnc3c(NC(=O)Nc4ccccc4)ncnc32)[C@H](O[Si](C)(C)C(C)(C)C)[C@@H]1CC(=O)N(C)OC
growth at 1000 µM (SNB-75): 12%
growth at 1000 µM (DU-145): 16%
growth at 100 µM (NCI-H460): 44%
growth at 0.1 µM (MDA-MB-435): 100%
growth at 1 µM (UO-31): 89%
growth at 10 µM (OVCAR-3): 100%
growth at 1 µM (NCI-H322M): 98%
growth at 1000 µM (NCI-H522): 31%
growth at 1 µM (HCT-15): 94%
growth at 10 µM (UACC-257): 102%
growth at 100 µM (COLO 205 [1]): 55%
growth at 1000 µM (COLO 205 [2]): 1%
growth at 0.1 µM (A498): 90%
growth at 1 µM (T47D): 89%
growth at 1000 µM [3]: -16%
growth at 100 µM (SN12C): 66%
growth at 0.1 µM (NCI-H226): 103%
growth at 1 µM (COLO 205 [4]): 93%
growth at 100 µM (CAKI-1 [5]): 57%
growth at 1 µM (SNB-19 [6]): 93%
GI50 (IGROV-1 [7]; read-out: GI50): 3.72 µM
CC50 (IGROV-1 [7]; [13]): > 100 µM
TGI (IGROV-1 [7]; read-out: TGI): 65.7 µM
GI50 (IGROV-1 [7]; read-out: pGI50 (converted)): 3.72 µM
CC50 (IGROV-1 [7]; [14]): > 100 µM
TGI (IGROV-1 [7]; read-out: pTGI (converted)): 66.1 µM
growth at 100 µM (RXF 393): 49%
growth at 1 µM (MCF7): 95%
GI50 (CAKI-1 [8]; read-out: GI50): 53.8 µM
CC50 (CAKI-1 [8]; [13]): > 100 µM
TGI (CAKI-1 [8]; read-out: TGI): > 100 µM
GI50 (CAKI-1 [8]; read-out: pGI50 (converted)): 53.7 µM
CC50 (CAKI-1 [8]; [14]): > 100 µM
TGI (CAKI-1 [8]; read-out: pTGI (converted)): > 100 µM
GI50 (SNB-19 [9]; read-out: GI50): > 100 µM
CC50 (SNB-19 [9]; [13]): > 100 µM
TGI (SNB-19 [9]; read-out: TGI): > 100 µM
GI50 (SNB-19 [9]; read-out: pGI50 (converted)): > 100 µM
CC50 (SNB-19 [9]; [14]): > 100 µM
TGI (SNB-19 [9]; read-out: pTGI): > 100 µM
GI50 (OVCAR-4; read-out: GI50): 53 µM
CC50 (OVCAR-4; [13]): > 100 µM
TGI (OVCAR-4; read-out: TGI): > 100 µM
GI50 (OVCAR-4; read-out: pGI50 (converted)): 52.5 µM
CC50 (OVCAR-4; [14]): > 100 µM
TGI (OVCAR-4; read-out: pTGI): > 100 µM
GI50 (EKVX; read-out: GI50): 26.4 µM
CC50 (EKVX; [13]): > 100 µM
TGI (EKVX; read-out: TGI): > 100 µM
GI50 (EKVX; read-out: pGI50 (converted)): 26.3 µM
CC50 (EKVX; [14]): > 100 µM
TGI (EKVX; read-out: pTGI (converted)): > 100 µM
growth at 10 µM (SF-268): 91%
growth at 100 µM (HOP-62): 64%
growth at 1000 µM (TK-10 [10]): 17%
growth at 10 µM (TK-10 [11]): 104%
growth at 1 µM (CCRF-CEM): 100%
growth at 1 µM (OVCAR-8): 106%
growth at 100 µM (IGROV-1 [12]): 26%
